In patent US8785459B2, “Quinazoline compounds as kinase inhibitors” (Development Center for Biotechnology, priority 2011, dated 2014):

How the values were obtained:
Format in all cases: biochemical
[1] = biological target: B-Raf (Homo sapiens (Human), UniProt P15056); assay: Raf kinase assay (B-Raf), [33P] incorporation into MEK1(K97R); conditions: for inhibition at 1 µM: 1.0 μM compound, read-out: B-Raf inhibition at 1.0 μM
Experimental: (§1) A. Raf Kinase Assays (B-Raf, B-raf (V600E), and C-Raf)
(§2) Inhibition of kinase activity by test compound disclosed herein was estimated by quantifying the amount of [^33P] incorporation of substrate in the presence of test compound. Standard assay conditions were 2 ng of recombinant C-Raf or 5 ng of recombinant B-Raf or 5 ng of recombinant B-Raf (V600E) kinase (Upstate Biotechnology) with 500 ng MEK1(K97R) in assay buffer {8 μM ATP, 0.5 μCi [^33P]ATP (specific activity 3000 Ci/mmol, PerkinElmer), 50 mM Tris/HCl (pH7.5), and 1 mM EGTA, 1 mM Na3VO4, 1% 2-mercaptoethanol, 0.1% Brij 35, and 0.2 mg/ml BSA} at a final volume of 25 μL. Reactions were incubated at 30° C. for 30 min and stopped by adding 3% phosphoric acid, harvested onto a 96-well GF/B UniFilter (PerkinElmer) using a unifilter harvester (PerkinElmer), and counted with a TopCount microplate scintillation counter (PerkinElmer). The IC50 values of inhibitors were determined after carrying out assays at 3-fold serially diluted concentrations of each compound in duplication. The results were analyzed using linear regression software (GraphPad Prism 4; GraphPad Software Inc.). Inhibition of B-Raf, B-raf (V600E), and C-Raf kinases by various compounds listed in Table 1 are summarized and shown in Table 3 below. IC50 value is defined as the concentration of the test compound which achieves a half-maximal inhibition of the kinase activity.

[2] = biological target: B-Raf (V600E) (Homo sapiens (Human), UniProt P15056, V600E); assay: Raf kinase assay (B-Raf (V600E)), [33P] incorporation into MEK1(K97R)
Sequence of B-Raf (V600E) (P15056 whole entry V600E): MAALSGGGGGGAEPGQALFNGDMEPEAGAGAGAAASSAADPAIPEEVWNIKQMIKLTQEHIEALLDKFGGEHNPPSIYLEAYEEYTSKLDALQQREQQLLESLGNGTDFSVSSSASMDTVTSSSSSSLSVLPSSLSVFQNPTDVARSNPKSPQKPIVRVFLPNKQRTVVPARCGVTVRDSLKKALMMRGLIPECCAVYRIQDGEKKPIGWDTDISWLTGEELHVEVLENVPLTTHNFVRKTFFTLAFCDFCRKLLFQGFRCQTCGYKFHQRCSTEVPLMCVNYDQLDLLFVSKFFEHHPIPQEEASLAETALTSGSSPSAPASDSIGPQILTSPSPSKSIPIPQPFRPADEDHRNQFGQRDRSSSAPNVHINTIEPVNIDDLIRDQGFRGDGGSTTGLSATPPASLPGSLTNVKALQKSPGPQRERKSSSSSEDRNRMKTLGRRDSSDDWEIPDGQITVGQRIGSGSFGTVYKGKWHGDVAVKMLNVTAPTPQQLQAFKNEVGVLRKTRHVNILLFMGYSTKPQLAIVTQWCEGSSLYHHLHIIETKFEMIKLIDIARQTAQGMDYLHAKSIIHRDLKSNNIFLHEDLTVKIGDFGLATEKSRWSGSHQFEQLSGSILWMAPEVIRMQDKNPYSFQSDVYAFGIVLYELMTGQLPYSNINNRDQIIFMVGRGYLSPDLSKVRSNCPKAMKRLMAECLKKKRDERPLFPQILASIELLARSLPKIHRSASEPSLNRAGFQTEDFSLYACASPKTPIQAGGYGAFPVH
Experimental: as §1, §2

[3] = biological target: C-Raf (Homo sapiens (Human), UniProt P04049); assay: Raf kinase assay (C-Raf), [33P] incorporation into MEK1(K97R)
Sequence of C-Raf (P04049 whole entry): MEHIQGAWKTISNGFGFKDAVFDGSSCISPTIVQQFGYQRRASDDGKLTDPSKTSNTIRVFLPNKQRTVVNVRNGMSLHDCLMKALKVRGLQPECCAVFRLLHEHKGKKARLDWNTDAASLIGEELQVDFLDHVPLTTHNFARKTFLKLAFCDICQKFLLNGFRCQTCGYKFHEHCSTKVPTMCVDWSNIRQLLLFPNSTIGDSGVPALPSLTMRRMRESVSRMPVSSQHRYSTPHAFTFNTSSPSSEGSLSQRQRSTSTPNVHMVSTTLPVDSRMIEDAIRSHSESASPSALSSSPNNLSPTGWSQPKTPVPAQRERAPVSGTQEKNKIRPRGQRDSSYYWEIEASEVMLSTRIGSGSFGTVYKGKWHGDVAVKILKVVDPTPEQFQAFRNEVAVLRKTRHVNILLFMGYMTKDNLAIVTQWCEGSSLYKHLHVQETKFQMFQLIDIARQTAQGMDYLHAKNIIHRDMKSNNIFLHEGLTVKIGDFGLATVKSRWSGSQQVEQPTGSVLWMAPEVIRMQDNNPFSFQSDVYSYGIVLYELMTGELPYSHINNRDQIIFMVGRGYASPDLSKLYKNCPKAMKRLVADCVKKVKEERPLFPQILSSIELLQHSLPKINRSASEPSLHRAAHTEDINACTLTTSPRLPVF
Experimental: as §1, §2

Sequence of B-Raf (P15056 whole entry): as the sequence (P15056 whole entry V600E) above, with E600V counted along it

Row | Structure (SMILES) | IC50 [1] [nM] | inhibition at 1 µM [1] [%] | IC50 [2] [nM] | IC50 [3] [nM]
1 | Oc1c(F)ccc(Nc2ncnc3ccc(-c4ccc(Cl)cc4)cc23)c1F [Compound 164, 3-(6-(4-chlorophenyl)quinazolin-4-ylamino)-2,6-difluorophenol] | 151 | 83 | 216 | 3510
2 | Fc1ccccc1-c1ccc2ncnc(Nc3cccc4[nH]ncc34)c2c1 [Compound 91, 6-(2-fluorophenyl)-N-(1H-indazol-4-yl)quinazolin-4-amine] | 155 | 85.3 | 255 | 709
3 | COc1cc(-c2ccc3nccc(Nc4cc(NS(C)(=O)=O)ccc4F)c3c2)ccc1O [Compound 128, N-(4-fluoro-3-(6-(4-hydroxy-3-methoxyphenyl)quinolin-4-ylamino)phenyl)methanesulfonamide] | 4130 | 18.5 | 4280 | 12800
4 | Nc1ccc(-c2ccc3nccc(Nc4cccc5[nH]ncc45)c3c2)cc1 [Compound 121, 6-(4-aminophenyl)-N-(1H-indazol-4-yl)quinolin-4-amine] | 227 | 76.2 | 284 | 753
5 | COc1ccc(-c2ccc3nccc(Nc4cccc5[nH]ncc45)c3c2)cc1Cl [Compound 115, 6-(3-chloro-4-methoxyphenyl)-N-(1H-indazol-4-yl)quinolin-4-amine] | 267 | 76.6 | 278 | 735
6 | COc1ccc(-c2ccc3ncnc(Nc4cccc5[nH]ncc45)c3c2)c(C)c1 [Compound 77, N-(1H-indazol-4-yl)-6-(4-methoxy-2-methylphenyl)quinazolin-4-amine] | 698 | 61.7 | 911 | 2530
7 | Clc1ccc(-c2ccc3ncnc(Nc4cccc5[nH]ncc45)c3c2)cc1 [Compound 80, 6-(4-chlorophenyl)-N-(1H-indazol-4-yl)quinazolin-4-amine] | 287 | 77.2 | 289 | 919
8 | COc1cc(-c2ccc3ncnc(Nc4cccc([N+](=O)[O-])c4)c3c2)ccc1O [Compound 36, 2-methoxy-4-(4-(3-nitrophenylamino)quinazolin-6-yl)phenol] | 256 | 76.3 | 675 | 6990
9 | CS(=O)(=O)Nc1cccc(-c2ccc3ncnc(Nc4cccc(O)c4)c3c2)c1 [Compound 72, N-(3-(4-(3-hydroxyphenylamino)quinazolin-6-yl)phenyl)methanesulfonamide] | 73.8 | 93.4 | 90 | 861
10 | COc1cc(-c2ccc3ncnc(Nc4ccc(C(=O)O)cc4O)c3c2)ccc1O [Compound 34, 3-hydroxy-4-(6-(4-hydroxy-3-methoxyphenyl)quinazolin-4-ylamino)benzoic acid] | 494 | 65 | 572 | 580
11 | COc1cccc(-c2ccc3ncnc(Nc4cccc(O)c4)c3c2)c1 [Compound 67, 3-(6-(3-methoxyphenyl)quinazolin-4-ylamino)phenol] | 103 | 84.3 | 139 | 2400
12 | c1ccc(-c2ccc3ncnc(Nc4cccc5[nH]ncc45)c3c2)cc1 [Compound 86, N-(1H-indazol-4-yl)-6-phenylquinazolin-4-amine] | 201 | 77.8 | 287 | 597
13 | COc1cc(-c2ccc3ncnc(Nc4cccc(O)c4C)c3c2)ccc1O [Compound 53, 3-(6-(4-hydroxy-3-methoxyphenyl)quinazolin-4-ylamino)-2-methylphenol] | 141 | 85.5 | 181 | 500
14 | COc1cc(-c2ccc3ncnc(Nc4ccc5[nH]nnc5c4)c3c2)ccc1O [Compound 66, 4-(4-(1H-benzo[d][1,2,3]triazol-5-ylamino)quinazolin-6-yl)-2-methoxyphenol] | 1010 | 59.3 | 933 | 973
